Measurements from ChEMBL document CHEMBL1141862, “Pyrimido-oxazepine as a versatile template for the development of inhibitors of specific kinases” (Bioorg Med Chem Lett, 2005).
pIC50: −log10 of the molar value. The source made the active and inactive calls. The rule behind the calls is not given here.

How the values were obtained:
[1] = biological target: T1, Aurora kinase A (Homo sapiens, UniProt O14965); assay: Inhibitory activity against Aurora A kinase
T1 sequence (O14965 whole entry): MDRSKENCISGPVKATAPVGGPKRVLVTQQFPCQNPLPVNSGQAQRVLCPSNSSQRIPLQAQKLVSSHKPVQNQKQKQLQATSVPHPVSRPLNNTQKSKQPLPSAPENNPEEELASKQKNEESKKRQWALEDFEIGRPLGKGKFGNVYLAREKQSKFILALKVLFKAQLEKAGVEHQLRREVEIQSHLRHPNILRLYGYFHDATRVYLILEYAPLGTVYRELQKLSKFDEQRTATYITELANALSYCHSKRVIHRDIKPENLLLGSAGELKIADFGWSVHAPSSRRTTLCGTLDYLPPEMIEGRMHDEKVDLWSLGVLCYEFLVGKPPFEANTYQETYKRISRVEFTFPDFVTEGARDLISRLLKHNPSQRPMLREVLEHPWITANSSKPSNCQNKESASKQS

[2] = biological target: Epidermal growth factor receptor (Homo sapiens) (UniProt P00533); assay: Inhibitory activity against EGFR at 25 uM
[3] = biological target: Vascular endothelial growth factor receptor 2 (Homo sapiens, UniProt P35968); assay: Inhibitory activity against KDR
[4] = biological target: T2, Cytoplasmic tyrosine-protein kinase BMX (Homo sapiens) (UniProt P51813); assay: Inhibitory activity against ETK at 25 uM
T2 sequence (whole entry): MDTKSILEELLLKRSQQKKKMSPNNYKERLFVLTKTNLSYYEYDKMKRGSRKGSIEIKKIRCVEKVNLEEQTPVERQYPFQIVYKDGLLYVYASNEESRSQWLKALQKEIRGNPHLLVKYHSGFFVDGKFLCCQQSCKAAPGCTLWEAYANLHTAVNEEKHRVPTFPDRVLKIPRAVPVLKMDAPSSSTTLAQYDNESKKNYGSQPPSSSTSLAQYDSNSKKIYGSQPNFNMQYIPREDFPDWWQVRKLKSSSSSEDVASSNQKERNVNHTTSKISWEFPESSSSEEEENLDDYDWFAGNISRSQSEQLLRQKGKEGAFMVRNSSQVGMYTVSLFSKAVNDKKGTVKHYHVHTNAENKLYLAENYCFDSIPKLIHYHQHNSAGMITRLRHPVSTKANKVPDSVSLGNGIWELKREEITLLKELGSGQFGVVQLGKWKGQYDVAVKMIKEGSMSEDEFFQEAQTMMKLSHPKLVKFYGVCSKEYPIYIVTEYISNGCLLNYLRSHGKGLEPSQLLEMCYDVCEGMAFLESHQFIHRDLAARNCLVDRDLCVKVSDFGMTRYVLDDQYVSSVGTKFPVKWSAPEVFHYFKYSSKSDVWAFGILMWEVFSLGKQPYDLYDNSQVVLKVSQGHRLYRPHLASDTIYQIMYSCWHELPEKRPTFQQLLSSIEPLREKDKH

[5] = biological target: Vascular endothelial growth factor receptor 1 (Homo sapiens) (UniProt P17948); assay: Inhibitory activity against FLT1 at 25 uM
[6] = biological target: T3, Receptor-type tyrosine-protein kinase FLT3 (Homo sapiens, UniProt P36888); assay: Inhibitory activity against FLT3 kinase in a HTRF assay
T3 sequence (P36888 whole entry): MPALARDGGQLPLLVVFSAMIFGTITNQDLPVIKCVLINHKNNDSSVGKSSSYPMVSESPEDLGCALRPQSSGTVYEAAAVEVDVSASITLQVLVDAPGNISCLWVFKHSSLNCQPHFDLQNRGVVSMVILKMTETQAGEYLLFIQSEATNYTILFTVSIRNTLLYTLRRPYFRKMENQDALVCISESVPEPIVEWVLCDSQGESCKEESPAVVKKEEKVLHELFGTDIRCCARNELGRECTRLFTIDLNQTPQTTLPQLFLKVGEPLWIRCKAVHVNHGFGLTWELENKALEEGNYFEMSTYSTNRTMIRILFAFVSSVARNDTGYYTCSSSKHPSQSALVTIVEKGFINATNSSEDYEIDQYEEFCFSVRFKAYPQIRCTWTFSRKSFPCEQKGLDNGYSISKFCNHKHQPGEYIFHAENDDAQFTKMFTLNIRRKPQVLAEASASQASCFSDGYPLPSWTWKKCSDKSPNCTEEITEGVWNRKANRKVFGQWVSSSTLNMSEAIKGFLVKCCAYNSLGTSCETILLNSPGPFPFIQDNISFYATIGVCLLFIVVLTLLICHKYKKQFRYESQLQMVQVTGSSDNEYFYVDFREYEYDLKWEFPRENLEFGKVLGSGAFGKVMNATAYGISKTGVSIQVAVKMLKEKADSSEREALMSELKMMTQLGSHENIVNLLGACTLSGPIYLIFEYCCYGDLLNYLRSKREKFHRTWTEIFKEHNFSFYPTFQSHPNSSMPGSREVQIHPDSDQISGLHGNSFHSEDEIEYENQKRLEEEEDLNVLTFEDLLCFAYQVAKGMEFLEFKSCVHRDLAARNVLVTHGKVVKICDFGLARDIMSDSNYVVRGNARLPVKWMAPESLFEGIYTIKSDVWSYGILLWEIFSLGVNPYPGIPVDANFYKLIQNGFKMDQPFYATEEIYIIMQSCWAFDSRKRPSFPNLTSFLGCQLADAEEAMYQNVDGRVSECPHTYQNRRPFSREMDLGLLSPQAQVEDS

[7] = biological target: Insulin-like growth factor 1 receptor (Homo sapiens) (UniProt P08069); assay: Inhibitory activity against IGF1R at 25 uM
[8] = biological target: Insulin receptor (Homo sapiens, UniProt P06213); assay: Inhibitory activity against IR
[9] = biological target: Hepatocyte growth factor receptor (Homo sapiens) (UniProt P08581); assay: Inhibitory activity against c-Met at 25 uM
[10] = biological target: Fibroblast growth factor receptor 1 (Homo sapiens) (UniProt P11362); assay: Inhibitory activity against FGF1R at 25 uM
Chain of Fibroblast growth factor receptor 1 (Homo sapiens) (P11362 22-822 limits assumed): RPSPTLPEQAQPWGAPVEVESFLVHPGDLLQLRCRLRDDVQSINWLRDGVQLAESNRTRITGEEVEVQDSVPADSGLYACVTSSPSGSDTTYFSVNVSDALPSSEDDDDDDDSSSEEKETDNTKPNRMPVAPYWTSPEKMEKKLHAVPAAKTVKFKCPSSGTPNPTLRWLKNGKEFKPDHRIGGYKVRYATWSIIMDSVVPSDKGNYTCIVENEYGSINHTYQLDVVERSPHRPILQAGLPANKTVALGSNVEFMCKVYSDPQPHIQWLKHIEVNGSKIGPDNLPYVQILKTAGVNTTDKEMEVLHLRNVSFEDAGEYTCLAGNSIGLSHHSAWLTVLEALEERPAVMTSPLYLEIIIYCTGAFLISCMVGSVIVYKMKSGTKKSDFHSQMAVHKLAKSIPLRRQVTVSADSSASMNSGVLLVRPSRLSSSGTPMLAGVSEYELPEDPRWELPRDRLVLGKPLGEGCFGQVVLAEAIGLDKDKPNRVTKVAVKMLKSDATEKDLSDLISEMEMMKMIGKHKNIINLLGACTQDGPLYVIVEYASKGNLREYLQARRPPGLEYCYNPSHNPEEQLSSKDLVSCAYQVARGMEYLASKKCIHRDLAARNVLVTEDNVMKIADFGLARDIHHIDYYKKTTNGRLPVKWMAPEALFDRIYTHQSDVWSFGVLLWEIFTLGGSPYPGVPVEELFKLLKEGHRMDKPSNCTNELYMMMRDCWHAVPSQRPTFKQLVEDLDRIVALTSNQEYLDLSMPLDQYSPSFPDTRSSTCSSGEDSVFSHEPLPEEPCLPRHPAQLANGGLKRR

Chain of Vascular endothelial growth factor receptor 1 (Homo sapiens) (P17948 whole entry): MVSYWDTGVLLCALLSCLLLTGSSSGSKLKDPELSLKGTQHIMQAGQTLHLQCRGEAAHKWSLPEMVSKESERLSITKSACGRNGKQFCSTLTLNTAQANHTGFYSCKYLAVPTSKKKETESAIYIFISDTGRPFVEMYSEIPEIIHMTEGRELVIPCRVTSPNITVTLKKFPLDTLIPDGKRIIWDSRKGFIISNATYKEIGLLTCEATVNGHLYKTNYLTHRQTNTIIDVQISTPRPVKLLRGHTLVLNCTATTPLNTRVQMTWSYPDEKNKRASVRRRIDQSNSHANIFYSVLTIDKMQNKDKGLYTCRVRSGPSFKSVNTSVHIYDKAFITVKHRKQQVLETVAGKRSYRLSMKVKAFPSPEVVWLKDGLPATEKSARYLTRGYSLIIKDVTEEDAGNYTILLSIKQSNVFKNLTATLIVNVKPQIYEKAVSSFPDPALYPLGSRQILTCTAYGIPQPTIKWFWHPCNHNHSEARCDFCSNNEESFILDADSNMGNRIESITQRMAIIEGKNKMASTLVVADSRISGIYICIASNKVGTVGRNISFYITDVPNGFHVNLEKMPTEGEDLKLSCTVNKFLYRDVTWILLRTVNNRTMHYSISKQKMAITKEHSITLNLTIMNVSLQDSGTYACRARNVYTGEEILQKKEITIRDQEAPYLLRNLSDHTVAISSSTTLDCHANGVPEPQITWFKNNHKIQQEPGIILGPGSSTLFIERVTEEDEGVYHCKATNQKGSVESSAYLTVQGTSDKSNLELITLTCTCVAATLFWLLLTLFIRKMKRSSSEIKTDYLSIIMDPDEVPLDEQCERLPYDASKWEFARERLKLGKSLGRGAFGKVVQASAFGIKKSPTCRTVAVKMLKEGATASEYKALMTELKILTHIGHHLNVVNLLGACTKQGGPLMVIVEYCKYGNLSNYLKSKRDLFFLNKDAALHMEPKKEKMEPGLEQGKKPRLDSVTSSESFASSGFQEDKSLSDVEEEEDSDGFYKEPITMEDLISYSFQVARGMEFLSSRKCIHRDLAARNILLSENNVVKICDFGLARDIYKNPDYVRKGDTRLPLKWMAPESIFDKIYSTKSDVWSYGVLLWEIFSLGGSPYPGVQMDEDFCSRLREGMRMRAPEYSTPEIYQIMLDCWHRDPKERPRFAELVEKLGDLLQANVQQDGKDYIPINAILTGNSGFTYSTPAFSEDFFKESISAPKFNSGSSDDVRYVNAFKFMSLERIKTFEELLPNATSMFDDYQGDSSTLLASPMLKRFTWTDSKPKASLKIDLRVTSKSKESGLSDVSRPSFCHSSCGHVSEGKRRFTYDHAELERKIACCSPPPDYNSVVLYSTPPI
Chain of Insulin receptor (P06213 28-758 limits assumed): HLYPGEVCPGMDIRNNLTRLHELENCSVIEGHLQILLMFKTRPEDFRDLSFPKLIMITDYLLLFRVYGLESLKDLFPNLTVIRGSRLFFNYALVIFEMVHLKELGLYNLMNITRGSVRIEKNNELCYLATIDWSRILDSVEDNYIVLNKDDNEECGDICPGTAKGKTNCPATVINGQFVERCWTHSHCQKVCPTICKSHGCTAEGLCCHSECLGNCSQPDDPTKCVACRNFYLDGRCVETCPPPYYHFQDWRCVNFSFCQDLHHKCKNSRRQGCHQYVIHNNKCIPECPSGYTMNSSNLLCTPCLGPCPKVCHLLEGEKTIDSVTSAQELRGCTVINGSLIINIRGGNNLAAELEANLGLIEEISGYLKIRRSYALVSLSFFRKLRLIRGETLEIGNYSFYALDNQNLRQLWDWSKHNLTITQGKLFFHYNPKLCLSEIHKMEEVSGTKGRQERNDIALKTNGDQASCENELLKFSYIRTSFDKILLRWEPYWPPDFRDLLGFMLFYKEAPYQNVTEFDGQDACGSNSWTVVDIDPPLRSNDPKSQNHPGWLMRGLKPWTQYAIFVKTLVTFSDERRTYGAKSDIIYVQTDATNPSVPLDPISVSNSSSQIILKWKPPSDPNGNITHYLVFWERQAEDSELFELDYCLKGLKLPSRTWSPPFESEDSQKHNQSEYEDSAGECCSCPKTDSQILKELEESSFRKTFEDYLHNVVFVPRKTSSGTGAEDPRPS
Chain of Insulin receptor (P06213 763-1382 limits assumed): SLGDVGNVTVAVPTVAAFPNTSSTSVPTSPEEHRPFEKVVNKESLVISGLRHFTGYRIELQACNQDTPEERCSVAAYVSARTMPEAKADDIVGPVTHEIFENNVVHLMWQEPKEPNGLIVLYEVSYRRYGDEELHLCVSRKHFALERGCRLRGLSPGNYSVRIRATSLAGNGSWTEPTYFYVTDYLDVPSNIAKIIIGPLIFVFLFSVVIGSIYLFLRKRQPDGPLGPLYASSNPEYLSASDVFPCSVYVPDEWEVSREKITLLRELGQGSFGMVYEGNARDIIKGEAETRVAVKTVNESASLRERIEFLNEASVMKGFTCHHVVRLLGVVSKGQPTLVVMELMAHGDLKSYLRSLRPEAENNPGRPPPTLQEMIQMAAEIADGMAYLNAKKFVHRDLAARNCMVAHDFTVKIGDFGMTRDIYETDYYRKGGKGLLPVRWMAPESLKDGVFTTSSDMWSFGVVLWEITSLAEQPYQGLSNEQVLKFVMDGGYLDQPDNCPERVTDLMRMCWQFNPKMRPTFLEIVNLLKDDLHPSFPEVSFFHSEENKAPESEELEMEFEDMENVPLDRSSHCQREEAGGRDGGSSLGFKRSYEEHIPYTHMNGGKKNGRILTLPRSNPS
Chain of Insulin-like growth factor 1 receptor (Homo sapiens) (P08069 31-736 limits assumed): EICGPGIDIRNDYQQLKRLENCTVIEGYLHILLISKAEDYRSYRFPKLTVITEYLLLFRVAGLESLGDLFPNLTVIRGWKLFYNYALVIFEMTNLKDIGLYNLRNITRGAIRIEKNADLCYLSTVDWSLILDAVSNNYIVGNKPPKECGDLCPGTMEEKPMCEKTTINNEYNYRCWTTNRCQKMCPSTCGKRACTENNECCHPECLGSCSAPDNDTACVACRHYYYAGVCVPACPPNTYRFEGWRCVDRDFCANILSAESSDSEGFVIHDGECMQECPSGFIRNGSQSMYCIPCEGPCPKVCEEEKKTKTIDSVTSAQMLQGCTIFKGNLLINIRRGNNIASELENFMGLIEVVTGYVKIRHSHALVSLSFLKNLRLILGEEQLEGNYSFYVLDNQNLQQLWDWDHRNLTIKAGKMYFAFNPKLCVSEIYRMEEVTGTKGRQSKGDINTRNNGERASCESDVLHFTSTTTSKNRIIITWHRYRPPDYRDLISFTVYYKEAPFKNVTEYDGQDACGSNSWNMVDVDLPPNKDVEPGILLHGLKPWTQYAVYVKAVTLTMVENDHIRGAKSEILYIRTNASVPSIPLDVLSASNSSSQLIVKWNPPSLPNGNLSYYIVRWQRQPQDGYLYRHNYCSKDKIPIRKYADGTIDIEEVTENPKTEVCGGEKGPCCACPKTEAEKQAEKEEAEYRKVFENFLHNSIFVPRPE
Chain of Insulin-like growth factor 1 receptor (Homo sapiens) (P08069 741-1367 limits assumed): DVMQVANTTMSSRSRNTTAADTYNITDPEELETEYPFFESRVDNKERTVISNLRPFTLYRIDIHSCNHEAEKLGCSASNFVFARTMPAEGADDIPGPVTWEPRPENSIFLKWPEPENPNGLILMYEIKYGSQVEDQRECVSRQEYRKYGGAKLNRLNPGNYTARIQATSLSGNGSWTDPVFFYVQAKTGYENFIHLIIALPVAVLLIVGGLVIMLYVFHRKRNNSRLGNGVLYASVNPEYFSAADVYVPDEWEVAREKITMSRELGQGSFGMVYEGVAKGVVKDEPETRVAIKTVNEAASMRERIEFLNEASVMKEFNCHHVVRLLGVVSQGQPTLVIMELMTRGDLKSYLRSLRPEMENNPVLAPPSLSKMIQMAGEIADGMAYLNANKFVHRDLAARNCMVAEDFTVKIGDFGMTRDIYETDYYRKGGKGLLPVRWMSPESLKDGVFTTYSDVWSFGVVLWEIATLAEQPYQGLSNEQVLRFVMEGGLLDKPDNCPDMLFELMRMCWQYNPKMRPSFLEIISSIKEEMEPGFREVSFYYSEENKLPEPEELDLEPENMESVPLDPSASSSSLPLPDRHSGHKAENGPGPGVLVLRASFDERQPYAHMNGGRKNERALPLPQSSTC

Compound	pIC50 [1]	other results
COc1cc2c(cc1OC)Oc1ncnc(Nc3cnc(NC(=O)c4ccccc4)nc3)c1NC2	6.33	
COc1cc2c(cc1OC)Oc1ncnc(Nc3cnc(NC(=O)c4ccc(C)cc4)nc3)c1NC2	5.92	
COc1ccc2c(c1)CNc1c(Nc3cnc(NC(=O)c4ccccc4)nc3)ncnc1O2	6.01	
COc1ccc2c(c1)Oc1ncnc(Nc3cnc(NC(=O)c4ccccc4)nc3)c1NC2	6.22	
Cc1ccc(C(=O)Nc2ncc(Nc3ncnc4c3NCc3ccccc3O4)cn2)cc1	5.43	
COc1cccc2c1CNc1c(Nc3cnc(NC(=O)c4ccccc4)nc3)ncnc1O2	5.66	
O=C(Nc1ccc2c(c1)C=Nc1c(Cl)ncnc1O2)Nc1ccc(Cl)c(C(F)(F)F)c1		Activity [2]: inactive; pIC50 [3]: 5.02; Activity [4]: inactive; Activity [5]: inactive; pIC50 [6]: 6.35; Activity [7]: inactive; pIC50 [8]: 5.02; Activity [9]: inactive; Activity [10]: inactive
O=C(Nc1ccc2c(c1)CNc1cnc(Cl)nc1O2)Nc1ccc(Cl)c(C(F)(F)F)c1		pIC50 [6]: 6.05
COc1ccc2c(c1)Oc1ncnc(Nc3cnc(NC(=O)c4cccc(F)c4)nc3)c1NC2	6.49	
COc1ccc2c(c1)Oc1ncnc(Nc3cnc(NC(=O)c4ccc(F)cc4)nc3)c1NC2	6.48	
COc1ccc2c(c1)CNc1c(Nc3cnc(NC(=O)c4cccc(F)c4)nc3)ncnc1O2	5.96	
COc1cccc2c1Oc1ncnc(Nc3cnc(NC(=O)c4ccccc4)nc3)c1NC2	< 5.00	
COc1cc2c(cc1OC)Oc1ncnc(Nc3cnc(NC(=O)c4cccc(F)c4)nc3)c1NC2	5.96	
CCN(CC)c1ccc2c(c1)Oc1ncnc(Nc3cnc(NC(=O)c4ccccc4)nc3)c1NC2	5.30	
O=C(Nc1ncc(Nc2ncnc3c2NCc2ccccc2O3)cn1)c1ccccc1	5.72	
O=C(Nc1ccc2c(c1)CNc1c(Cl)ncnc1O2)Nc1ccc(Cl)c(C(F)(F)F)c1		pIC50 [6]: 4.86
COc1ccc2c(c1)CNc1c(Nc3cnc(NC(=O)c4ccc(C)cc4)nc3)ncnc1O2	5.46	
